Experimental data from publication PMC8788145 (Journal of medicinal chemistry, 2017).

Biological target: human plasmin (Homo sapiens, UniProt P00747)
Assay: Protamine reversibility of plasmin inhibition by NSGM 2
Format: biochemical
Conditions: plasmin treated with inhibitor 2 (200 μM), pH 7.4, 37 °C

Sequence of human plasmin (P00747 97-580 limits assumed): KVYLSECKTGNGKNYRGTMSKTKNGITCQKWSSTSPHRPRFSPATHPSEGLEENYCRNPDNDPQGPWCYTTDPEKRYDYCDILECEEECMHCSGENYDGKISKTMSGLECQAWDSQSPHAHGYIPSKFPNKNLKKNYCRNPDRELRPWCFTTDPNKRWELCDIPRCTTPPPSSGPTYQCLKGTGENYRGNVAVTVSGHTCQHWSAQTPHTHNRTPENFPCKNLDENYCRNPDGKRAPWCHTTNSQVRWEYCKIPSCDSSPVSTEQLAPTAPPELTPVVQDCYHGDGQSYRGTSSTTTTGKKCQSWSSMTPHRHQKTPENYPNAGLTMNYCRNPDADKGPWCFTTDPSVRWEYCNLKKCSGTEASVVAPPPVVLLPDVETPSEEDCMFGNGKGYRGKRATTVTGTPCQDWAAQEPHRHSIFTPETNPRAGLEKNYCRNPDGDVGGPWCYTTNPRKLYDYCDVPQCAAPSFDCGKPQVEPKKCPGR
Sequence of human plasmin (P00747 581-810 limits assumed): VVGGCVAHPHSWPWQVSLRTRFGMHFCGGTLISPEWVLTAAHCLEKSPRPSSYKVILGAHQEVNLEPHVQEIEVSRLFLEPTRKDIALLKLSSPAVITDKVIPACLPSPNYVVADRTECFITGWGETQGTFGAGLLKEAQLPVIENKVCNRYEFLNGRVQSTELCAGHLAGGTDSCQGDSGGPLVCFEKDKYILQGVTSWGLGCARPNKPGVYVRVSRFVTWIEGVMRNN

protamine
efficacy of restoring plasmin activity: ~ 100%
